Assay results reported in PubChem BioAssay (NCI).
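A five-concentration, 48-hour dose response in 96-well plates underlies each endpoint, interpolated linearly between surrounding concentrations. Here, GI50 denotes the concentration required for 50% inhibition of growth. TGI is the concentration that stops growth completely.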

Key:
Assay in all cases: NCI tumour cell line growth inhibition, 48 h
MOLT-4 leukemia = system: MOLT-4 leukemia
HCT-15 colon = system: HCT-15 colon
COLO 205 colon = system: COLO 205 colon
SN12C renal = system: SN12C renal
ACHN renal = system: ACHN renal
SK-MEL-28 melanoma = system: SK-MEL-28 melanoma
HT29 colon = system: HT29 colon
M14 melanoma = system: M14 melanoma
LOX IMVI melanoma = system: LOX IMVI melanoma
SW-620 colon = system: SW-620 colon
SNB-19 CNS = system: SNB-19 CNS
HOP-62 NSCLC = system: HOP-62 NSCLC
MDA-MB-231 breast = system: MDA-MB-231 breast
MALME-3M melanoma = system: MALME-3M melanoma
SNB-75 CNS = system: SNB-75 CNS
SF-539 CNS = system: SF-539 CNS
NCI-H460 lung = system: NCI-H460 lung
UACC-62 melanoma = system: UACC-62 melanoma
NCI-H23 lung = system: NCI-H23 lung
T-47D breast = system: T-47D breast
HCT-116 colon = system: HCT-116 colon
NCI-H226 lung = system: NCI-H226 lung
SF-268 CNS = system: SF-268 CNS
HCC-2998 colon = system: HCC-2998 colon
MCF7 breast = system: MCF7 breast
HS 578T breast = system: HS 578T breast
OVCAR-5 ovarian = system: OVCAR-5 ovarian
MDA-MB-435 = system: MDA-MB-435
DU-145 prostate = system: DU-145 prostate
PC-3 prostate = system: PC-3 prostate
SK-OV-3 ovarian = system: SK-OV-3 ovarian
SK-MEL-2 melanoma = system: SK-MEL-2 melanoma
RXF 393 renal = system: RXF 393 renal
OVCAR-4 ovarian = system: OVCAR-4 ovarian
CCRF-CEM leukemia = system: CCRF-CEM leukemia
SF-295 CNS = system: SF-295 CNS
TK-10 renal = system: TK-10 renal
SR leukemia = system: SR leukemia
UACC-257 melanoma = system: UACC-257 melanoma
BT-549 breast = system: BT-549 breast
K-562 leukemia = system: K-562 leukemia
KM12 colon = system: KM12 colon
786-0 renal = system: 786-0 renal
A549 NSCLC = system: A549 NSCLC
OVCAR-8 ovarian = system: OVCAR-8 ovarian
OVCAR-3 ovarian = system: OVCAR-3 ovarian
NCI-H522 lung = system: NCI-H522 lung
SK-MEL-5 melanoma = system: SK-MEL-5 melanoma
CAKI-1 renal = system: CAKI-1 renal
IGROV1 ovarian = system: IGROV1 ovarian
U251 CNS = system: U251 CNS
HOP-92 NSCLC = system: HOP-92 NSCLC
RPMI-8226 leukemia = system: RPMI-8226 leukemia
HL-60(TB) leukemia = system: HL-60(TB) leukemia

## Nc1c(C(=O)Nc2ccccn2)sc2nc3c(cc12)CCCCC3
MOLT-4 leukemia
  GI50: 2320 nM
  TGI: > 50 µM
HCT-15 colon
  GI50: 1380 nM
  TGI: > 50 µM
COLO 205 colon
  GI50: 1420 nM
  TGI: > 50 µM
SN12C renal
  GI50: 3.59 µM
  TGI: > 50 µM
ACHN renal
  GI50: 2710 nM
  TGI: > 50 µM
SK-MEL-28 melanoma
  GI50: 6.23 µM
  TGI: > 50 µM
HT29 colon
  GI50: 1750 nM
  TGI: > 50 µM
M14 melanoma
  GI50: 1260 nM
  TGI: > 50 µM
LOX IMVI melanoma
  GI50: 9.56 µM
  TGI: > 50 µM
SW-620 colon
  GI50: 3.19 µM
  TGI: > 50 µM
SNB-19 CNS
  GI50: 2770 nM
  TGI: > 50 µM
HOP-62 NSCLC
  GI50: 3.46 µM
  TGI: > 50 µM
MDA-MB-231 breast
  GI50: 3.83 µM
  TGI: > 50 µM
MALME-3M melanoma
  GI50: 34.3 µM
  TGI: > 50 µM
SNB-75 CNS
  GI50: 2350 nM
  TGI: > 50 µM
SF-539 CNS
  GI50: 1390 nM
  TGI: > 50 µM
NCI-H460 lung
  GI50: 1830 nM
  TGI: > 50 µM
UACC-62 melanoma
  GI50: 3.06 µM
  TGI: > 50 µM
NCI-H23 lung
  GI50: 2190 nM
  TGI: > 50 µM
T-47D breast
  GI50: 1790 nM
  TGI: > 50 µM
HCT-116 colon
  GI50: 1770 nM
  TGI: > 50 µM
NCI-H226 lung
  GI50: 2600 nM
  TGI: > 50 µM
SF-268 CNS
  GI50: 4.89 µM
  TGI: > 50 µM
HCC-2998 colon
  GI50: 2370 nM
  TGI: > 50 µM
MCF7 breast
  GI50: 851 nM
  TGI: > 50 µM
HS 578T breast
  GI50: 2740 nM
  TGI: > 50 µM
OVCAR-5 ovarian
  GI50: 3.8 µM
  TGI: > 50 µM
MDA-MB-435
  GI50: 250 nM
  TGI: > 50 µM
DU-145 prostate
  GI50: 1880 nM
  TGI: > 50 µM
PC-3 prostate
  GI50: 2590 nM
  TGI: > 50 µM
SK-OV-3 ovarian
  GI50: 2140 nM
  TGI: > 50 µM
SK-MEL-2 melanoma
  GI50: 2080 nM
  TGI: > 50 µM
RXF 393 renal
  GI50: 1400 nM
  TGI: 4.86 µM
OVCAR-4 ovarian
  GI50: 4.09 µM
  TGI: > 50 µM
CCRF-CEM leukemia
  GI50: 1910 nM
  TGI: > 50 µM
SF-295 CNS
  GI50: 1560 nM
  TGI: > 50 µM
TK-10 renal
  GI50: 4.98 µM
  TGI: > 50 µM
SR leukemia
  GI50: 521 nM
  TGI: > 50 µM
UACC-257 melanoma
  GI50: > 50 µM
  TGI: > 50 µM
BT-549 breast
  GI50: 2360 nM
  TGI: > 50 µM
K-562 leukemia
  GI50: 987 nM
  TGI: > 50 µM
KM12 colon
  GI50: 1950 nM
  TGI: > 50 µM
786-0 renal
  GI50: 1780 nM
  TGI: > 50 µM
A549 NSCLC
  GI50: 2470 nM
  TGI: > 50 µM
OVCAR-8 ovarian
  GI50: 2870 nM
  TGI: > 50 µM
OVCAR-3 ovarian
  GI50: 1630 nM
  TGI: > 50 µM
NCI-H522 lung
  GI50: 2110 nM
  TGI: > 50 µM
SK-MEL-5 melanoma
  GI50: 2130 nM
  TGI: > 50 µM
CAKI-1 renal
  GI50: 3.51 µM
  TGI: > 50 µM
IGROV1 ovarian
  GI50: 3.58 µM
  TGI: > 50 µM
U251 CNS
  GI50: 2640 nM
  TGI: > 50 µM
HOP-92 NSCLC
  GI50: 27.9 µM
  TGI: > 50 µM
RPMI-8226 leukemia
  GI50: 1980 nM
  TGI: > 50 µM
HL-60(TB) leukemia
  GI50: 1340 nM
  TGI: > 50 µM
